Test results published in US20020045268A1, “MEASURING ANALYTES WITH METAL-LIGAND COMPLEX PROBES” (priority 1997, published 2002).
“Also recorded” adds a separate entry of the source.

Assays:
Format in all cases: physicochemical
[1] = pH-dependent intensity, phase and modulation data of FIG. 15 and emission spectrum of the dcbpy complex; conditions: relative to Ru(bpy)3
Text: FIG. 15 graphically depicts data in connection with the metal-ligand complex [Ru(bpy)2 (dcbpy)]Cl4 showing pH-dependent intensity, phase and modulation data.
The emission shift to longer wavelengths at low pH (FIG. 2) seems to be generally understandable in terms of the electronic properties of the excited MLCs. The long wavelength emission is thought to result from a metal-to-ligand charge transfer (MLCT) state in which an electron is donated from Ru to the ligand. The protonated form of deabpy is probably a better electron acceptor, lowering the energy of the MLCT state, shifting the emission to longer wavelengths and thereby decreasing the lifetime. […] Terpetschnig, E., H. Szmacinski, H. Malak and J. R. Lakowicz. Biophys. J., 68:342-350; Fluorescence Polarization Immunoassay of a High Molecular Weight Antigen Based on a Long-Lifetime Ru-Ligand Complex (1995). Terpetschnig, E., H. Szmacinski and J. R. Lakowicz. Anal. Biochem., 227:140-147].
The dcbpy ligand is probably a better electron acceptor than bpy. […] It could be used at a pH in the range of pH 2 to 5.

[2] = frequency-domain intensity decay (lifetime) measurements, single and global multi-exponential analysis
Text: For the phase/modulation measurements (FIGS. 6-9), an air-cooled Argon ion laser (output at 488 nm) was used as the excitation light source, and the modulation frequency was set at 700 kHz. On the emission side, a long-wave pass filter was used to collect the fluorescence with wavelength longer than 600 nm. The reference solution used here was an aqueous solution of Texas Red with a reference lifetime of 4 ns. For the lifetime measurements, we used the same instrumentation and reference solution, and 23 different modulation frequencies ranging from 11 kHz to 2 MHZ.
Single and multi-exponential intensity decays were recovered from the multi-frequency data as described previously [see, Construction and Performance of a Variable-Frequency Phase-Modulation Fluorometer (1985). Lakowicz, J. R. and B. P. Maliwal. Biophys. Chem., 21:61-78; Frequency-Domain Fluorescence Spectroscopy (1991) in Topics in Fluorescence Spectroscopy, Vol. 1: Techniques, (Lakowicz, J. R., Ed.). Plenum Press, New York, pp. 293-355]. The data were analyzed globally in terms of the multi-exponential model [formula]
where Ik(t) are the intensity decays at each pH (k) value, Ti are the decay times and αik are the amplitudes. For the global analysis we assumed that the αik values would depend on pH, but that the two lifetimes would be independent of pH. The goodness-of-fit was judged by the usual XR^2 criterion with assumed uncertainties in phase δp=0.2° and modulation δm=0.005.

[3] = pH-dependent fluorescence emission spectra and intensities in buffers
Method: (§1) Ru(bpy)2 (deabpy) (PF6)2 solutions at different pH value were prepared by dissolving equal amount of aqueous Ru(bpy)2 (deabpy) (PF6)2 in different buffer solutions. From pH 2 to pH 4.7, we used citrate buffer; from pH 4.8 to pH 6.3 we used acetate buffer; from pH 6.4 to pH 7.8 we used phosphate buffer; from pH 7.8 to pH 9.0 we used tris buffer, from pH 9.2 to pH 11 we used carbonate/bicarbonate buffer, from pH 11 to pH 12 we used dibasic sodium phosphate/sodium hydroxide buffer. Unless stated otherwise the buffer concentrations were 20 mM and contained 0.1 M potassium chloride to maintain ionic strength.
The fluorescence emission spectra were measured using Aminco Bowman Series AB2 Luminescence Spectrometer with the excitation wavelength of 414 nm. […] The emission intensity ratios (620 nm/650 nm) of the different sample were also recorded.

[4] = pH-dependent absorption at 450 nm (ground state pKa); conditions: from changes in absorption at 450 nm
Method: Chemicals and solvents were purchased from Aldrich and used without further purification. Absorption spectra were measured using a Perkin Elmer lambda 6 UV/Vis spectrophotometer. Observed were two isosbestic points at 414 nm and 475 nm. The absorbance at 450 nm of different samples were measured to obtain the ground state pKa.
as §1

Question: For `O=C(O)c1ccnc(-c2cc(C(=O)O)ccn2)c1.[Ru+2].c1ccc(-c2ccccn2)nc1.c1ccc(-c2ccccn2)nc1` [[Ru(dcbpy)(bpy)2]^2+], which emission spectrum shift [1] is on record?
Answer: Its emission spectrum shift is “red shift”.

Question: For `CCN(CC)Cc1ccnc(-c2cc(CN(CC)CC)ccn2)c1.[Ru+2].c1ccc(-c2ccccn2)nc1.c1ccc(-c2ccccn2)nc1` [[Ru(deabpy)(bpy)2]^2+], which mean decay time ([2]; high pH) is on record?
Answer: Its mean decay time is roughly 390 ns.

Question: And the mean decay time ([2]; low pH, protonated amino groups)?
Answer: The mean decay time was roughly 240 ns.

Question: What about the “α1, amplitude of 235 ns component, global analysis” value (shortened to “α1, amplitude of 235 ns component”) ([2]; pH 2.4) of the same compound?
Answer: Its value is 0.964.

Question: What about the “α2, amplitude of 380 ns component, global analysis” value (shortened to “α2, amplitude of 380 ns component”) ([2]; pH 2.4) of the same compound?
Answer: Its value is 0.036.

Question: What about the “τ2 (ns), global analysis” value ([2]; pH 2.4) of the same compound?
Answer: Its value is 380 ns.

Question: And the “τi (ns), global analysis” value ([2]; pH 2.4)?
Answer: Its value is 235 ns.

Question: And the “τ(ns), single decay time analysis” value ([2]; pH 2.40)?
Answer: The value was 236 ns.

Question: And the “α1, amplitude of 235 ns component” value ([2]; pH 5.8)?
Answer: Its value is 0.893.

Question: And the “α2, amplitude of 380 ns component” value ([2]; pH 5.8)?
Answer: The value was 0.107.

Question: And the “τ2 (ns), global analysis” value ([2]; pH 5.8)?
Answer: The value was 380 ns.

Question: What about the “τi (ns), global analysis” value ([2]; pH 5.8) of the same compound?
Answer: Its value is 235 ns.

Question: What about the “τ(ns), single decay time analysis” value ([2]; pH 5.89) of the same compound?
Answer: Its value is 252 ns.

Question: What about the “α1, amplitude of 235 ns component” value ([2]; pH 6.91) of the same compound?
Answer: The value was 0.828.

Question: And the “α2, amplitude of 380 ns component” value ([2]; pH 6.91)?
Answer: Its value is 0.172.

Question: What about the “τ2 (ns), global analysis” value ([2]; pH 6.91) of the same compound?
Answer: Its value is 380 ns.

Question: And the “τ(ns), single decay time analysis” value ([2]; pH 6.91)?
Answer: Its value is 262 ns.

Question: What about the “τi (ns), global analysis” value ([2]; pH 6.91) of the same compound?
Answer: The value was 235 ns.

Question: What about the “α1, amplitude of 235 ns component” value ([2]; pH 7.45) of the same compound?
Answer: Its value is 0.687.

Question: What about the “α2, amplitude of 380 ns component” value ([2]; pH 7.45) of the same compound?
Answer: The value was 0.313.

Question: And the “τ2 (ns), global analysis” value ([2]; pH 7.45)?
Answer: Its value is 380 ns.

Question: And the “τ(ns), single decay time analysis” value ([2]; pH 7.45)?
Answer: The value was 284 ns.

Question: And the “τi (ns), global analysis” value ([2]; pH 7.45)?
Answer: Its value is 235 ns.

Question: And the “α1, amplitude of 235 ns component” value ([2]; pH 8.02)?
Answer: Its value is 0.380.

Question: What about the “α2, amplitude of 380 ns component” value ([2]; pH 8.02) of the same compound?
Answer: Its value is 0.620.

Question: What about the “τ2 (ns), global analysis” value ([2]; pH 8.02) of the same compound?
Answer: The value was 380 ns.

Question: What about the “τ(ns), single decay time analysis” value ([2]; pH 8.02) of the same compound?
Answer: Its value is 327 ns.

Question: What about the “τi (ns), global analysis” value ([2]; pH 8.02) of the same compound?
Answer: The value was 235 ns.

Question: What about the “α1, amplitude of 235 ns component” value ([2]; pH 13.5) of the same compound?
Answer: The value was 0.

Question: What about the “α2, amplitude of 380 ns component” value ([2]; pH 13.5) of the same compound?
Answer: Its value is 1.0.

Question: What about the “τ2 (ns), global analysis” value ([2]; pH 13.5) of the same compound?
Answer: The value was 380 ns.

Question: And the “τ(ns), single decay time analysis” value ([2]; pH 13.5)?
Answer: Its value is 392 ns.

Question: What about the “τi (ns), global analysis” value ([2]; pH 13.5) of the same compound?
Answer: Its value is 235 ns.

Question: And the “decay time, global analysis” value ([2]; protonated form)?
Answer: The value was 235 ns.

Question: And the “decay time, global analysis” value ([2]; unprotonated form)?
Answer: Its value is 380 ns.

Question: And the “dependence of apparent pKa on ionic strength / buffer concentration” value ([3]; 20, 50 and 100 mM phosphate buffer)?
Answer: The value was “not found to be dependent on ionic strength; also recorded: same apparent pKa values”.

Question: And the emission maximum ([3]; acidic sample (low pH), excitation 414 nm)?
Answer: The emission maximum was 650 nm.

Question: And the “increase of emission spectrum” value ([3]; as pH increases from 2.52 to 11.8)?
Answer: Its value is “about 3 fold”.

Question: And the emission maximum ([3]; basic sample, excitation 414 nm)?
Answer: Its emission maximum is 620 nm.

Question: And the “apparent pKa observed by fluorescence” value ([3]; pH-dependent fluorescence intensities, excitation 414 nm)?
Answer: The value was roughly 7.5.

Question: What about the “ground state pKa” value [4] of the same compound?
Answer: Its value is 7.14.
